Test results published in patent US8927533B2, “Thio derivatives bearing lactams as potent HDAC inhibitors and their uses as medicaments” (SIGMA-TAU Industrie Farmaceutiche Riunite S.p.A., priority 2011, dated 2015).
pIC50: −log10 of the molar value. Read-outs that look alike come from different tables or passages of the source.

Key:
Assay type in all cases: biochemical
[1] = target: T1, HDAC11 (Homo sapiens, UniProt Q96DB2); assay: HDAC enzymatic assay, HDAC11; conditions: for pIC50: Table 2, thio (SH) vs hydroxamate (CONHOH) MBG analogues, read-out: HDAC isoforms, 11 (IC50); for IC50: fluorogenic tetrapeptide RHKKAc substrate 10 μM, read-out: HDAC isoforms IC50 (nM), 11
T1 sequence (Q96DB2 1-347): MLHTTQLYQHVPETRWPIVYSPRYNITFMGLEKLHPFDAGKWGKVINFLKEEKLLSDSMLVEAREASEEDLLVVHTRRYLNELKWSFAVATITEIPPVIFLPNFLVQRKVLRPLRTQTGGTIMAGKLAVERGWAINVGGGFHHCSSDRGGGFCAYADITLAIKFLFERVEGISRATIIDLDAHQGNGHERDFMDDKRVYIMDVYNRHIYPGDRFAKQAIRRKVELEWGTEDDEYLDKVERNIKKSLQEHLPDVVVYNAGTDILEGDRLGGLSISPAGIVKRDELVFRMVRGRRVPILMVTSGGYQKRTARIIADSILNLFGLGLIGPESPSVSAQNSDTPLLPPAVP
Procedure: (§1) Each compound was dissolved in DMSO, and progressively diluted solutions were used for testing. […] Upon its deacetylation, the fluorophore was released given rise to fluorescence emission which was detected by a fluorimeter, and the IC50 values of the compounds were determined by analyzing dose-response inhibition curves.

[2] = target: T2, HDAC3 (complex of full length human HDAC3 with human NCOR2 amino acids 395-489) (Homo sapiens, UniProt O15379); assay: HDAC enzymatic assay, HDAC3; conditions: for pIC50: Table 2, thio (SH) vs hydroxamate (CONHOH) MBG analogues, read-out: HDAC isoforms, 3 (IC50); for IC50: fluorogenic tetrapeptide RHKKAc substrate 10 μM, read-out: HDAC isoforms IC50 (nM), 3
T2 construct: complex of full length human HDAC3 with a C-terminal His-tag; His-tag (C); host or cells: baculovirus expression system
Procedure: as §1

[3] = target: T3, HDAC10 (Homo sapiens, UniProt Q969S8); assay: HDAC enzymatic assay, HDAC10; conditions: for pIC50: Table 2, thio (SH) vs hydroxamate (CONHOH) MBG analogues, read-out: HDAC isoforms, 10 (IC50); for IC50: fluorogenic tetrapeptide RHKKAc substrate 10 μM, read-out: HDAC isoforms IC50 (nM), 10
T3 sequence (Q969S8 1-669): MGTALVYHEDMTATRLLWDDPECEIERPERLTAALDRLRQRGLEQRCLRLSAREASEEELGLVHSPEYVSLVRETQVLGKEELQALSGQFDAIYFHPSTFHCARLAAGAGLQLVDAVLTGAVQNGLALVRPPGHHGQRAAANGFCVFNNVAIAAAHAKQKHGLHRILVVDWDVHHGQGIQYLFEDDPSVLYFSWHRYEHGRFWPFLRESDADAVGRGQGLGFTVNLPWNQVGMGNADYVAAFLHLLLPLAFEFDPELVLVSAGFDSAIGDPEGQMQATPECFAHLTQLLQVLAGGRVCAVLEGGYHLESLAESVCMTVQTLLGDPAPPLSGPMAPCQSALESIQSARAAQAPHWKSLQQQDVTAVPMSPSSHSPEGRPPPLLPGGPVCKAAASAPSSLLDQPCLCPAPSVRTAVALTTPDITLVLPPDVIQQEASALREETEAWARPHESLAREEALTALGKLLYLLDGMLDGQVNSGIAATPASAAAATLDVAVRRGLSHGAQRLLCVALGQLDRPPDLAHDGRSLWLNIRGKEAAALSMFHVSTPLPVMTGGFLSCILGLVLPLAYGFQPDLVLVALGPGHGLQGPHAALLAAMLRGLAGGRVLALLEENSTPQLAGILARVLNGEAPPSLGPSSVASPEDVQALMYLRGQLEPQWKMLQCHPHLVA
Procedure: as §1

[4] = target: HDAC5 (Homo sapiens, UniProt Q9UQL6); assay: HDAC enzymatic assay, HDAC5; conditions: for pIC50: Table 2, thio (SH) vs hydroxamate (CONHOH) MBG analogues, read-out: HDAC isoforms, 5 (IC50); for IC50: fluorogenic tetrapeptide RHKKAc substrate 10 μM, read-out: HDAC isoforms IC50 (nM), 5
Procedure: as §1

[5] = target: HDAC2 (Homo sapiens, UniProt Q92769); assay: HDAC enzymatic assay, HDAC2; conditions: for pIC50: Table 2, thio (SH) vs hydroxamate (CONHOH) MBG analogues, read-out: HDAC isoforms, 2 (IC50); for IC50: fluorogenic tetrapeptide RHKKAc substrate 10 μM, read-out: HDAC isoforms IC50 (nM), 2
Procedure: as §1

[6] = target: HDAC4 (Homo sapiens, UniProt P56524); assay: HDAC enzymatic assay, HDAC4; conditions: for pIC50: Table 2, thio (SH) vs hydroxamate (CONHOH) MBG analogues, read-out: HDAC isoforms, 4 (IC50); for IC50: fluorogenic tetrapeptide RHKKAc substrate 10 μM, read-out: HDAC isoforms IC50 (nM), 4
Procedure: as §1

[7] = target: HDAC9 (Homo sapiens, UniProt Q9UKV0); assay: HDAC enzymatic assay, HDAC9; conditions: for pIC50: Table 2, thio (SH) vs hydroxamate (CONHOH) MBG analogues, read-out: HDAC isoforms, 9 (IC50); for IC50: fluorogenic tetrapeptide RHKKAc substrate 10 μM, read-out: HDAC isoforms IC50 (nM), 9
Procedure: as §1

[8] = target: T4, HDAC8 (Homo sapiens, UniProt Q9BY41); assay: HDAC enzymatic assay, HDAC8; conditions: for pIC50: Table 2, thio (SH) vs hydroxamate (CONHOH) MBG analogues, read-out: HDAC isoforms, 8 (IC50); for IC50: fluorogenic tetrapeptide RHKKAc substrate 10 μM, read-out: HDAC isoforms IC50 (nM), 8
T4 sequence (Q9BY41 1-377): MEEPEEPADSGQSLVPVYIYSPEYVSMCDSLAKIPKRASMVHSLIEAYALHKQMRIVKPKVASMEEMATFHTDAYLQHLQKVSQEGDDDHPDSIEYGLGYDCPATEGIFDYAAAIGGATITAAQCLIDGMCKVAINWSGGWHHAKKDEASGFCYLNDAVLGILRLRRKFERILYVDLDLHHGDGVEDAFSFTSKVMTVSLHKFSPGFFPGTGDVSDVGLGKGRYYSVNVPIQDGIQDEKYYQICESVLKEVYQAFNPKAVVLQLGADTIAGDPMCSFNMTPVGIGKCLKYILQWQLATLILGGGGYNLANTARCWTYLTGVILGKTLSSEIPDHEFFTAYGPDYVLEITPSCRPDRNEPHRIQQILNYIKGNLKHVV
Procedure: as §1

T2 sequence (O15379 whole entry, the tested form may be a part, canonical isoform): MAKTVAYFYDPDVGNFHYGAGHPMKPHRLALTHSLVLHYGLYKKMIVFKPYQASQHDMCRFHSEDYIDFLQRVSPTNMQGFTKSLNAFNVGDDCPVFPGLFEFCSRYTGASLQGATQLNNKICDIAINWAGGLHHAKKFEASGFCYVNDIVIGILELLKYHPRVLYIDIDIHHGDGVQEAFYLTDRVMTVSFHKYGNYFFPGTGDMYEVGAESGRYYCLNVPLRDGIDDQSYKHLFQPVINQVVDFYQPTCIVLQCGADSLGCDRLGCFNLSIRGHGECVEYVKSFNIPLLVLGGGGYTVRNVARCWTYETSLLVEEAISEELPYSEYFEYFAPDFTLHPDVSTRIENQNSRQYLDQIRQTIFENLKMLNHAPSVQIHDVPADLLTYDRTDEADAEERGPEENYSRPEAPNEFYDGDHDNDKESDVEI
T2 sequence (Q9Y618 395-489 partner limits assumed): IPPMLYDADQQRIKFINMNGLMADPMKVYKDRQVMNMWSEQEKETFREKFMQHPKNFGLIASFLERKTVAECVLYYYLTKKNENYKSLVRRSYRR
HDAC9, sequence (Q9UKV0 whole entry, canonical isoform): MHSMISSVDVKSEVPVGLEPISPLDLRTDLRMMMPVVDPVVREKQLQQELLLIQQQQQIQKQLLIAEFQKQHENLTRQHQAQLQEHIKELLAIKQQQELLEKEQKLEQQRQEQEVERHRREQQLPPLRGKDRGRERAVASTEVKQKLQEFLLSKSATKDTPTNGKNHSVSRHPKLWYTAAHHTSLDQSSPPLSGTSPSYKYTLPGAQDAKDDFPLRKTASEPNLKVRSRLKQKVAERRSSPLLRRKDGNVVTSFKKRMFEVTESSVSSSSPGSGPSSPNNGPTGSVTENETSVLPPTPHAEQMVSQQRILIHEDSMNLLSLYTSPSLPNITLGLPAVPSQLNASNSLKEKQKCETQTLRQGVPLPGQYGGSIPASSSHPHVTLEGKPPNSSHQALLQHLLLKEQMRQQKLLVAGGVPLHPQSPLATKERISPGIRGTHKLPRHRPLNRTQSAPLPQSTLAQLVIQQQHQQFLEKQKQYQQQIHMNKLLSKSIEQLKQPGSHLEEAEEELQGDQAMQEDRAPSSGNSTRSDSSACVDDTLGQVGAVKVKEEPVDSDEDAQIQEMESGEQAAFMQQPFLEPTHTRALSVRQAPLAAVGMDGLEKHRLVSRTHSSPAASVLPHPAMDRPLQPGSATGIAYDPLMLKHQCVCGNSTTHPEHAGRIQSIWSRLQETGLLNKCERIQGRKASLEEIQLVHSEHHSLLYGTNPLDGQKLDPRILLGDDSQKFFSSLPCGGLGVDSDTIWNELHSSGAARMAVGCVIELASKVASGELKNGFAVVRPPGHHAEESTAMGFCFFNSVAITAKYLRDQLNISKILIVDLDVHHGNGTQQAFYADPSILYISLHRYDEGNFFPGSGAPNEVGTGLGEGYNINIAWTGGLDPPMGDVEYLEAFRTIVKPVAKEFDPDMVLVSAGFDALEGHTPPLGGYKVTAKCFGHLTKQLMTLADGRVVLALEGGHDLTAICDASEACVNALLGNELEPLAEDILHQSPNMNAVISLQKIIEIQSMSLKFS
HDAC5, sequence (Q9UQL6 whole entry, canonical isoform): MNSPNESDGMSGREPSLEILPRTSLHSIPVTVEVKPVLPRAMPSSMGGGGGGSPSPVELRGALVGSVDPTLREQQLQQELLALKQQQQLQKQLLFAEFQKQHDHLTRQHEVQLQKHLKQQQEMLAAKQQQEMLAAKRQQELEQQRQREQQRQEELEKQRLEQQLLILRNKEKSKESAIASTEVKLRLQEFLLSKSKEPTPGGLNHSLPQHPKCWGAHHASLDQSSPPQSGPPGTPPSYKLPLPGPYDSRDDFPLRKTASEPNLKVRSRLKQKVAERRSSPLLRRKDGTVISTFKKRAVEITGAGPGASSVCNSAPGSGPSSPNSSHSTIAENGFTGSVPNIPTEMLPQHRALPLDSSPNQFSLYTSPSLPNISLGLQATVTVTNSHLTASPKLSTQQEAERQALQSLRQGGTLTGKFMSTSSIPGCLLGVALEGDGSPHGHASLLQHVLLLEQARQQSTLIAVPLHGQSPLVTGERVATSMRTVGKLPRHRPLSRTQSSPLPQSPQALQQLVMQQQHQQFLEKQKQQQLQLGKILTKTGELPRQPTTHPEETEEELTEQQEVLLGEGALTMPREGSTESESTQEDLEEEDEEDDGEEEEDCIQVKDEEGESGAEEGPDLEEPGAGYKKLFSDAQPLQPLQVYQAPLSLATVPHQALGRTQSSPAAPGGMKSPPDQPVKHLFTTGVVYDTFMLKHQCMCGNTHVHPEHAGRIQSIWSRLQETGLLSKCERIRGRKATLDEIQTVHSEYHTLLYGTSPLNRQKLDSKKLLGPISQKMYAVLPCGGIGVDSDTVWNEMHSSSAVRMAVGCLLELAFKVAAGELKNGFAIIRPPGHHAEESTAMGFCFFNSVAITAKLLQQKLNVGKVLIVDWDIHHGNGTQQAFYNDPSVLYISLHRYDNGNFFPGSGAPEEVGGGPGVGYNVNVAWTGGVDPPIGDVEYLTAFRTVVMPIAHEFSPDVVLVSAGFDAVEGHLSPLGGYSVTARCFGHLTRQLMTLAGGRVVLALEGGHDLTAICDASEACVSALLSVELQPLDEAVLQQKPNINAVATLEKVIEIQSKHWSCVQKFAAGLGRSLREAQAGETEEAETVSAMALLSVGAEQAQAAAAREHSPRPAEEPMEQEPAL
HDAC2, sequence (Q92769 whole entry, canonical isoform): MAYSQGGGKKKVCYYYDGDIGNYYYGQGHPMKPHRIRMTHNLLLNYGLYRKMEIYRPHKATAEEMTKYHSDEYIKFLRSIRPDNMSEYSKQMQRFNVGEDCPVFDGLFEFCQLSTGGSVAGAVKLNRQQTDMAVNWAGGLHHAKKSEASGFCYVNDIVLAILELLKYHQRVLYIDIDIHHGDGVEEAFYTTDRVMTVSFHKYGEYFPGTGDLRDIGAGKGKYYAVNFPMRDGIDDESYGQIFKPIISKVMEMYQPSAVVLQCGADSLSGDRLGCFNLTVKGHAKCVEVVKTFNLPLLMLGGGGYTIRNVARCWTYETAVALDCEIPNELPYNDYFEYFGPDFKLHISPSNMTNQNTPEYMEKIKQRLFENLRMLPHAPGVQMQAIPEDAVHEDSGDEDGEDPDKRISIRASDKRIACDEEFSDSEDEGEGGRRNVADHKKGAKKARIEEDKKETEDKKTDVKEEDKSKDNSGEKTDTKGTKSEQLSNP
HDAC4, sequence (P56524 whole entry, canonical isoform): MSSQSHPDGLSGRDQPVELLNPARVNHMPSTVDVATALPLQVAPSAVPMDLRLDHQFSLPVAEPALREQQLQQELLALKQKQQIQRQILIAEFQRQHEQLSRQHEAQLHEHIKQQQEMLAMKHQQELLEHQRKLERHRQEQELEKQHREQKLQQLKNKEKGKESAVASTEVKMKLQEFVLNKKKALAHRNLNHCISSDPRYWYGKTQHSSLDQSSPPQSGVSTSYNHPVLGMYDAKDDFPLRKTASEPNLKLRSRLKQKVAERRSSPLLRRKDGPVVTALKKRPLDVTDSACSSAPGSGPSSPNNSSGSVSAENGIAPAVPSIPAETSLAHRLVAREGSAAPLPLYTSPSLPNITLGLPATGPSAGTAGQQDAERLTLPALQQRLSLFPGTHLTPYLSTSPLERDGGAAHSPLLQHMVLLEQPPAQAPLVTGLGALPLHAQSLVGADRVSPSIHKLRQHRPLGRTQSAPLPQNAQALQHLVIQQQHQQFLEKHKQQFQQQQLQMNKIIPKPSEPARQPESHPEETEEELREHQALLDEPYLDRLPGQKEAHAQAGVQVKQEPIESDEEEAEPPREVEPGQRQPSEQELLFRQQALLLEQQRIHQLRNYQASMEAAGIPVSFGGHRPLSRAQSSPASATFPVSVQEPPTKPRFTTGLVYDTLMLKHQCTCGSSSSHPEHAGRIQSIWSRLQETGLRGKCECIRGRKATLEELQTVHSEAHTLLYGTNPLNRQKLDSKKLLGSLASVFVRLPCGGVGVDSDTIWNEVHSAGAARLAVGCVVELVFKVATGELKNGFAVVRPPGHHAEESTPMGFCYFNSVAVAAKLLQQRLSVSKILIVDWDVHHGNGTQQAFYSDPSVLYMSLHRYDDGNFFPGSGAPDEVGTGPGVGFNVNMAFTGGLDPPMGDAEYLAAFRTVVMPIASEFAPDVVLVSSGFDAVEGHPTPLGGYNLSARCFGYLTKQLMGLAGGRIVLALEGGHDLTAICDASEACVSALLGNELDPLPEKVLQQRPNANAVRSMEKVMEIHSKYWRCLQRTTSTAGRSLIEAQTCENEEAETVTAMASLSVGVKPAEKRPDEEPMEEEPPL

| pIC50 [1] | IC50 [1] | pIC50 [2] | IC50 [2] | pIC50 [3] | IC50 [3] | pIC50 [4] | IC50 [4] | pIC50 [5] | IC50 [5] | pIC50 [6] | IC50 [6] | pIC50 [7] | IC50 [7] | pIC50 [8] | IC50 [8] | Structure (SMILES) |
| --- | --- | --- | --- | --- | --- | --- | --- | --- | --- | --- | --- | --- | --- | --- | --- | --- |
| > 7.30 | < 50 nM | > 7.30 | < 50 nM | > 7.30 | < 50 nM | > 7.30 | < 50 nM | > 7.30 | < 50 nM | > 7.30 | < 50 nM | > 7.30 | < 50 nM | > 7.30 | < 50 nM | O=C1NC[C@@H](c2ccccc2)[C@@H]1C(=O)N[C@@H](CCCCCS)C(=O)Nc1ccccc1 [Example 31, (3S,4R)-2-Oxo-4-phenyl-pyrrolidine-3-carboxylic acid ((S)-6-mercapto-1-phenylcarbamoyl-hexyl)-amide] |
| > 7.30 | < 50 nM | > 7.30 | < 50 nM | > 7.30 | < 50 nM | > 7.30 | < 50 nM | 7.00 to 7.30 | 50 to 100 nM | 7.00 to 7.30 | 50 to 100 nM | > 7.30 | < 50 nM | 6.30 to 7.00 | 100 to 500 nM | O=C1CC[C@H](C(=O)N[C@@H](CCCCCS)C(=O)Nc2ccccc2)N1 [Example 33, (R)-5-Oxo-pyrrolidine-2-carboxylic acid ((S)-6-mercapto-1-phenylcarbamoyl-hexyl)amide] |
| – | < 50 nM | – | < 50 nM | – | < 50 nM | – | 50 to 100 nM | – | 100 to 500 nM | – | < 50 nM | – | < 50 nM | – | 100 to 500 nM | O=C1NC[C@H](c2ccccc2)[C@@H]1C(=O)N[C@@H](CCCCCS)C(=O)Nc1ccccc1 [Example 28, (3S,4S)-2-Oxo-4-phenyl-pyrrolidine-3-carboxylic acid ((S)-6-mercapto-1-phenylcarbamoyl-hexyl)-amide] |
| > 7.30 | – | > 7.30 | – | > 7.30 | – | > 7.30 | – | 7.00 to 7.30 | – | > 7.30 | – | > 7.30 | – | 6.30 to 7.00 | – | CC(=O)SCCCCC[C@H](NC(=O)[C@H]1CCC(=O)N1)C(=O)Nc1ccccc1 [Example 21, Thioacetic acid S—{(S)-6-[((R)-5-oxo-pyrrolidine-2-carbonyl)-amino]-6-phenylcarbamoyl-hexyl}ester] |
| – | < 50 nM | – | < 50 nM | – | < 50 nM | – | < 50 nM | – | < 50 nM | – | < 50 nM | – | < 50 nM | – | 100 to 500 nM | O=C1CCC[C@H](C(=O)N[C@@H](CCCCCS)C(=O)Nc2ccccc2)N1 [Example 37, (R)-6-Oxo-piperidine-2-carboxylic acid ((S)-6-mercapto-1-phenylcarbamoyl-hexyl)amide] |
| – | < 50 nM | – | < 50 nM | – | < 50 nM | – | < 50 nM | – | 50 to 100 nM | – | 100 to 500 nM | – | < 50 nM | – | 100 to 500 nM | CN1C(=O)CCC[C@H]1C(=O)N[C@@H](CCCCCS)C(=O)Nc1ccccc1 [Example 40, (S)-1-Methyl-6-oxo-piperidine-2-carboxylic acid ((S)-6-mercapto-1-phenylcarbamoyl-hexyl)-amide] |
